Assays:
PI3K/mTOR = settings: relatively higher concentrations; cited from earlier work
mTOR = mTOR (Homo sapiens, UniProt P42345); settings: low concentration; cited from earlier work
[1] = system: influenza vaccine strains; experiment: Clinical study in elderly volunteers: response to influenza vaccination after 6 weeks of mTOR inhibitor dosing; type: in vivo, human; settings: 4 weeks after vaccination, 2 week drug-free break
Protocol: In a clinical study elderly volunteers were treated for 6 weeks daily with one of four mTOR inhibitor dosing regimens: 0.5 mg/day RAD001, 0.1 mg/day RAD001, 10 mg/day BEZ235 or 0.1 mg/day RAD001+10 mg/day BEZ235.
After being dosed for 6 weeks, the elderly volunteers were given a 2 week drug-free break and then received influenza vaccination. […] All dosing regimens were relatively well tolerated. […] However the majority of these adverse events were of mild severity, transient and resolved despite continued dosing of mTOR inhibitors.

SMILES	concentration at which dual PI3K/mTOR inhibition occurs (PI3K/mTOR)	concentration at which mTOR inhibition predominates (mTOR)	vaccine strains with GMT ratio as compared to placebo >1.2 ([1]; BEZ235 10 mg/day monotherapy for 6 weeks)	vaccine strains with GMT ratio as compared to placebo >1.2 ([1]; RAD001 0.1 mg/day monotherapy for 6 weeks)	vaccine strains with GMT ratio as compared to placebo >1.2 ([1]; RAD001 0.5 mg/day monotherapy for 6 weeks)
Cn1c(=O)n(-c2ccc(C(C)(C)C#N)cc2)c2c3cc(-c4cnc5ccccc5c4)ccc3ncc21 [BEZ235, 2-methyl-2-[4-(3-methyl-2-oxo-8-quinolin-3-yl-2,3-dihydro-imidazo[4,5-c]quinolin-1-yl)-phenyl]-propionitrile]	approximately 500 nmol/L	less than 100 nmol/L	0/3		
CO[C@H]1C[C@@H]2CC[C@@H](C)[C@@](O)(O2)C(=O)C(=O)N2CCCC[C@H]2C(=O)O[C@H]([C@H](C)C[C@@H]2CC[C@@H](OCCO)[C@H](OC)C2)CC(=O)[C@H](C)/C=C(\C)[C@@H](O)[C@@H](OC)C(=O)[C@H](C)C[C@H](C)/C=C/C=C/C=C/1C [RAD001, (1R,9S,12S,15R,16E,18R,19R,21R,23S,24E,26E,28E,30S,32S,35R)-1,18-dihydroxy-12-{(1R)-2-[(1S,3R,4R)-4-(2-hydroxyethoxy)-3-methoxycyclohexyl]-1-methylethyl}-19,30-dimethoxy-15,17,21,23,29,35-hexamethyl-11,36-dioxa-4-aza-tricyclo[30.3.1.04,9]hexatriaconta-16,24,26,28-tetraene-2,3,10,14,20-pentaone]				⅓	⅓

From US10576076B2 (priority 2015, dated 2020)
